{
  "source": "patent US11541059B2",
  "about": "“Heterocyclic compounds and uses thereof” (Infinity Pharmaceuticals, Inc., priority 2014, dated 2023)",
  "key": {"Lewis Lung Carcinoma": {"system": "Lewis Lung Carcinoma", "test": "Lewis Lung Carcinoma model / LLC tumor brei model", "format": "in vivo, mouse"}, "4T1 breast cancer": {"system": "4T1 breast cancer", "test": "Subcutaneous 4T1 breast cancer model", "format": "in vivo", "settings": "co-administration with docetaxel, paclitaxel, or 5-FU"}, "[1]": {"system": "LPS induced neutrophil influx in BALF", "test": "LPS-induced neutrophilia, oral administration", "format": "in vivo", "settings": "rat, p.o., 4 hours post-LPS challenge", "source_text": "This study also includes assessment of the exposure to the compounds in plasma and lung tissues."}, "[2]": {"system": "RANKL driven differentiation of osteoclasts from bone marrow macrophages", "test": "Osteoclast differentiation assay (TRAP)", "format": "cell-based, mouse", "settings": "TRAP positive cells, FIG. 17", "experimental": "Long bones from young C57B6 mice were harvested and bone marrow was extruded by gentle lavage of the bone marrow cavities with a 28 gage needle. The cells were screened, and red blood cells were removed using red blood cell lysis buffer (Sigma). Bone marrow cells were differentiated to macrophages using 20 ng/ml mouse MCSF (RnD systems) for 3 days (RPMI and 20% FCS). The cell were washed with PBS, and lifted with Accutase for 10 minutes.\nThe bone marrow macrophage cells were plated at 150,000 cells per well in a 96 well plate in a MEM 10% FCS. […] Then 25 ng/ml mouse MCSF with or without mouse RANKL (100 ng/ml, RnD systems) was added for 6 days. Media changes (including drugs) were done at day 3 and day 5. The cells were then fixed and stained with the tartrate resistant acid phosphatase (TRAP) assay kit from Sigma according to the manufactures instructions. TRAP positive cells (osteoclasts and cells undergoing an osteoclastic differentiation) in a transect of the triplicate wells (at 20× […]) were manually counted by going through the widest part of each well."}, "CT26 tumors": {"system": "CT26 tumors", "test": "CT26 colon cancer allograft model", "format": "in vivo, mouse", "settings": "FIG. 28"}, "[3]": {"system": "CD11b+ myeloid cells in 4T1 tumors", "test": "Immunohistochemistry of tumor immune infiltrates (CD11b, CD68), 4T1", "format": "in vivo, mouse", "settings": "vs vehicle, day 13", "experimental": "Immunohistochemistry was performed to determine the distribution of immune cells within the tumor. In particular, CD11b myeloid cells were examined, as were regulatory vs. effector T cells (CD3, CD4, CD8, FoxP3). Briefly, IHC for CD11b or CD68+ was performed as follows. CD11b antibodies were available from Abcam, clone I-70, Catalog #ab 8878. CD68 antibodies were available from Abcam, clone FA-11, catalog #ab 53444. Tissues were fixed in cold methanol, air-dried, and then stained using a Res IHC Omni-UltraMap HRP XT protocol.\nWithout being bound by a particular theory, the decrease in the pro-tumorigenic tumor associated myeloid cells can result in activation of cytotoxic T-cells and anti-tumor immunity. […] When the images were quantified as CD11b+ cells per total viable cells (FIG. 37E), a Student t-Test p-value of 0.0355 was obtained when comparing the Compound BB-treated cells to controls. When the images were quantified as CD11b+ stained area per total visible area (FIG. 37F), a Student t-Test p-value of 0.0441 was obtained when comparing the Compound BB-treated cells to controls. […] When the images were quantified as CD11b+ cells per total viable cells (FIG. 37G), a Student t-Test p-value of 0.0864 (d16) or 0.3967 (d22) was obtained when comparing the Compound BB-treated cells to controls. […]"}, "[4]": {"system": "TAMs / CD206 in LLC tumor brei", "test": "Flow cytometry of tumor-associated myeloid cells, LLC tumor brei", "format": "in vivo, mouse", "experimental": "(§1) Flow cytometry was performed to obtain a more extensive cellular subset analysis. In particular, the study examined T cell vs. Myeloid cells, Myeloid cell subsets, Regulatory vs. effector T cells, and Tumor markers vs. WBC (e.g., PD-L1 expression on tumor).\n(§2) Different populations of tumor-associated myeloid cells can be identified by flow cytometry, e.g., monocytic immature myeloid cells (iMC),Granulocytic iMCs/Neutrophils, Tumor Associated Macrophages (TAMs), and Granulocytic MDSCs. The different populations, and panels for detecting MDSCs, are described in Cancer Discovery 2011; 1:54-67. Tumors may vary in their myeloid cell composition."}, "[5]": {"system": "monocytic iMCs in CT26 subcutaneous tumors", "test": "Flow cytometry of tumor-associated myeloid cells, CT26", "format": "in vivo, mouse", "settings": "FIG. 38B", "experimental": "as §1, §2"}, "Human hep viability": {"test": "Human hep viability", "format": "cell-based", "settings": "human hepatocytes"}, "Oral half-life": {"test": "Oral half-life", "format": "in vivo", "settings": "plasma", "source_text": "Compound BB's oral exposure is high in rat, dog and monkey. Good oral bioavailability and low clearance in rodent and non-rodent animal species results in high oral exposure."}, "GL261-Luc tumors": {"system": "GL261-Luc tumors", "test": "GL261-Luc murine glioblastoma subcutaneous model", "format": "in vivo, mouse", "settings": "15 mg/kg QD, PO, FIG. 47A"}, "[6]": {"system": "pAKT S473 in T cells and monocytes", "test": "Ex vivo whole blood CXCL12 stimulation of phospho-AKT, LLC-bearing mice", "format": "in vivo, mouse", "settings": "12 days QD PO, 2 h post dose", "experimental": "C57 BL/6 Albino mice were implanted with 1×10^6 cells in a SC injection in the hind flank. The cell implant material was generated from brei that was passaged from mouse to mouse. Treatment started when tumors were between 160-180 mm^3. Mice were dosed for 12 days, QD, PO with vehicle, 15, 7.5 or 3 mg/kg. On day 12 mice were dosed and terminal blood was collected 2 h post dose by cardiac stick collection. Blood was placed in EDTA K2 collection tube and stored at room temp for PD analysis.\nBlood from each animal was aliquotted into 2 plates and warmed to 37° C. degrees. PBS was added to one plate as an unstimulated control. Murine CXCL12/SDF-1 was added to the second plate to a final concentration of 800 ng/mL and plate was returned to the 37° C. degree block. After 2 minutes of incubation, blood was lysed and fixed using paraformaldehyde. Samples were washed and frozen until flow cytometric analysis. T cells were gated using an antibody to CD3 and monocytes were gated as LY6G^− LY6C^high. Intracellular pAKT S473 was measured and percent positive was used for graphing."}},
  "data": [
    {"smiles": "C[C@H](NC(=O)c1c(N)nn2cccnc12)c1cc2cccc(C#Cc3cnn(C)c3)c2c(=O)n1-c1ccccc1", "note": "[Compound BB]", "values": [
      {"measurement": "CD206+ M2 polarized suppressive macrophages", "setting": "Lewis Lung Carcinoma", "result": "reduces"},
      {"measurement": "TAMs", "setting": "Lewis Lung Carcinoma", "result": "decreased"},
      {"measurement": "tumor growth", "setting": "4T1 breast cancer", "result": "further reduction in tumor growth"},
      {"measurement": "Neutrophil in bronchoalveolar lavage fluid (BALF)", "setting": "[1]", "result": "reduced neutrophil"},
      {"measurement": "RANKL driven differentiation of osteoclasts from bone marrow macrophages", "setting": "[2]", "result": "prevents RANKL driven differentiation of osteoclasts"},
      {"measurement": "MDSC expansion after cyclophosphamide treatment", "setting": "CT26 tumors", "result": "expansion is decreased"},
      {"measurement": "CD11b+ myeloid cell staining in viable regions of 4T1 tumors", "setting": "[3]", "result": "decrease in CD11b+ myeloid cell staining"},
      {"measurement": "Infiltrating TAMs", "setting": "[4]; FIG. 38A", "result": "the number of infiltrating TAMs was decreased"},
      {"measurement": "CD206 staining (M2 polarized suppressive macrophages)", "setting": "[4]; FIG. 39", "result": "CD206 staining was reduced"},
      {"measurement": "Monocytic iMCs", "setting": "[5]", "result": "monocytic iMCs were decreased"},
      {"measurement": "IC50", "setting": "Human hep viability", "result": "10 to 25", "unit": "µM"},
      {"measurement": "half-life", "setting": "Oral half-life; dog, 5 mg/kg", "result": "~7.1", "unit": "h"},
      {"measurement": "half-life", "setting": "Oral half-life; monkey, 5 mg/kg", "result": "~10.2", "unit": "h"},
      {"measurement": "half-life", "setting": "Oral half-life; rat, 7.5 mg/kg", "result": "~3.3", "unit": "h"},
      {"measurement": "Tumor volume, GL-261 syngeneic glioma model", "setting": "GL261-Luc tumors", "result": "reduced tumor volume"},
      {"measurement": "Ex vivo whole blood CXCL12 stimulation of phospho-AKT in T cells", "setting": "[6]; FIG. 58", "result": "inhibits the ex vivo whole blood stimulation of phosphor-AKT in T cells"},
      {"measurement": "Ex vivo whole blood CXCL12 stimulation of phospho-AKT in monocytes", "setting": "[6]; FIG. 59", "result": "inhibits the ex vivo whole blood stimulation of phosphor-AKT in monocytes"}
    ]}
  ]
}
